# Results reported in PubChem BioAssay AID328 (DTP/NCI, 2004).
# Several values for one entry are separate records, joined by “and”; a condition that tells them apart may be missing. Identical values can stand only once. Inconclusive results and toxic doses are left out.
# Tested on: BDF1 mice, P388 leukemia ip, median survival T/C
# Experiment: NCI In Vivo Anticancer Drug Screen. Data for tumor model P388 Leukemia (intraperitoneal) in B6D2F1 (BDF1) mice
# Conditions: endpoint: median survival time, higher = longer survival
# Procedure, shortened: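 Each value expresses how treatment altered survival: treated-mouse outcome over vehicle-mouse outcome, both groups bearing the transplanted tumour.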
# [1] = dose: 100.0 mg/kg/injection, schedule: Q01DX009 (ip), vehicle: saline with Tween-80
# [2] = dose: 100.0 mg/kg/injection, schedule: Q04DX003 (ip), vehicle: saline with Tween-80
# [3] = dose: 200.0 mg/kg/injection, schedule: Q01DX009 (ip), vehicle: saline with Tween-80
# [4] = dose: 200.0 mg/kg/injection, schedule: Q04DX003 (ip), vehicle: saline with Tween-80
# [5] = dose: 400.0 mg/kg/injection, schedule: Q04DX003 (ip), vehicle: saline with Tween-80
# [6] = dose: 30.0 mg/kg/injection, schedule: Q04DX003 (ip), vehicle: saline
# [7] = dose: 50.0 mg/kg/injection, schedule: Q01DX009 (ip), vehicle: saline
# [8] = dose: 100.0 mg/kg/injection, schedule: Q01DX009 (ip), vehicle: saline
# [9] = dose: 100.0 mg/kg/injection, schedule: Q04DX003 (ip), vehicle: saline
# [10] = dose: 200.0 mg/kg/injection, schedule: Q04DX003 (ip), vehicle: Klucel (hydroxypropylcellulose) (HPC)
smiles,measurement,setting,value
CC[C@@H]1CN(C)[C@H]2Cc3c([nH]c4ccccc34)C(=O)C[C@H]1C2C(=O)OC (stereo partly specified),T/C,"dose: 100.0 mg/kg/injection, schedule: Q01DX009 (ip), vehicle: saline sonified",90 % of control
same,T/C,"dose: 100.0 mg/kg/injection, schedule: Q04DX003 (ip), vehicle: saline sonified",100 % of control
same,T/C,"dose: 200.0 mg/kg/injection, schedule: Q01DX009 (ip), vehicle: saline sonified",115 % of control
same,T/C,"dose: 200.0 mg/kg/injection, schedule: Q04DX003 (ip), vehicle: saline sonified",100 % of control
same,T/C,"dose: 400.0 mg/kg/injection, schedule: Q01DX009 (ip), vehicle: saline sonified",100 % of control
same,T/C,"dose: 400.0 mg/kg/injection, schedule: Q04DX003 (ip), vehicle: saline sonified",90 % of control
O=C1CC(c2ccc(OCN(CCCl)CCCl)cc2)CC(=O)C1CN(CCCl)CCCl (stereo unspecified),T/C,"dose: 0.5 mg/kg/injection, schedule: Q01DX009 (ip), vehicle: Klucel (hydroxypropylcellulose) (HPC)",124 % of control
same,T/C,"dose: 4.0 mg/kg/injection, schedule: Q01DX009 (ip), vehicle: Klucel (hydroxypropylcellulose) (HPC)",160 % of control
C=C(C)C(=O)OC1C(C(C)CCCO)=C(CO)CC2OC(=O)C(=C)C21 (stereo unspecified),T/C,"dose: 2.0 mg/kg/injection, schedule: Q01DX009 (ip), vehicle: saline + alcohol",104 % of control
same,T/C,"dose: 4.0 mg/kg/injection, schedule: Q01DX009 (ip), vehicle: saline + alcohol",109 % of control
same,T/C,"dose: 8.0 mg/kg/injection, schedule: Q01DX009 (ip), vehicle: saline + alcohol",114 % of control
same,T/C,"dose: 16.0 mg/kg/injection, schedule: Q01DX009 (ip), vehicle: saline + alcohol",109 % of control
same,T/C,"dose: 32.0 mg/kg/injection, schedule: Q01DX009 (ip), vehicle: saline + alcohol",152 % of control
NCCNc1ccc(NCCN)c2c1C(=O)c1ccccc1C2=O,T/C,"dose: 6.25 mg/kg/injection, schedule: Q01DX009 (ip), vehicle: other",214 % of control
CC1CC(C)(C)N=C(C(Cc2ccc(Br)cc2)c2ccccc2)O1 (stereo unspecified),T/C,"dose: 100.0 mg/kg/injection, schedule: Q01DX001 (ip), vehicle: saline sonified",95 % of control
same,T/C,"dose: 200.0 mg/kg/injection, schedule: Q01DX001 (ip), vehicle: saline sonified",110 % of control
same,T/C,"dose: 400.0 mg/kg/injection, schedule: Q01DX001 (ip), vehicle: saline sonified",110 % of control
Cc1ccc(C)c(-n2nnc3ccccc3c2=O)c1,T/C,[1],100 % of control
same,T/C,[2],100 % of control
same,T/C,[3],86 % of control
same,T/C,[4],90 % of control
same,T/C,"dose: 400.0 mg/kg/injection, schedule: Q01DX009 (ip), vehicle: saline with Tween-80",100 % of control
same,T/C,[5],100 % of control
O=C(O)c1ccccc1C(=O)Nc1cc(C(F)(F)F)ccc1Cl,T/C,[2],90 % of control
same,T/C,[4],104 % of control
same,T/C,[5],118 % of control
C(CC1CO1)C1CO1 (stereo unspecified),T/C,"dose: 22.0 mg/kg/injection, schedule: Q01DX009 (ip), vehicle: saline",119 % of control and 120 % of control
same,T/C,"dose: 25.0 mg/kg/injection, schedule: Q01DX009 (ip), vehicle: saline",157 % of control
same,T/C,[6],113 % of control
same,T/C,"dose: 33.0 mg/kg/injection, schedule: Q01DX009 (ip), vehicle: saline",150 % of control
same,T/C,[7],161 % of control and 166 % of control and 176 % of control
same,T/C,"dose: 67.0 mg/kg/injection, schedule: Q04DX003 (ip), vehicle: saline",172 % of control and 176 % of control
same,T/C,"dose: 75.0 mg/kg/injection, schedule: Q01DX009 (ip), vehicle: saline",175 % of control and 200 % of control
same,T/C,[8],215 % of control
same,T/C,[9],241 % of control and 200 % of control
same,T/C,"dose: 150.0 mg/kg/injection, schedule: Q04DX003 (ip), vehicle: saline",240 % of control
CCCn1cnc2c(=S)nc(N)[nH]c21,T/C,"dose: 6.25 mg/kg/injection, schedule: Q01DX009 (ip), vehicle: Klucel (hydroxypropylcellulose) (HPC)",100 % of control
same,T/C,"dose: 12.5 mg/kg/injection, schedule: Q01DX009 (ip), vehicle: Klucel (hydroxypropylcellulose) (HPC)",86 % of control
same,T/C,"dose: 25.0 mg/kg/injection, schedule: Q01DX009 (ip), vehicle: Klucel (hydroxypropylcellulose) (HPC)",86 % of control
same,T/C,"dose: 29.0 mg/kg/injection, schedule: Q04DX003 (ip), vehicle: Klucel (hydroxypropylcellulose) (HPC)",110 % of control
same,T/C,"dose: 45.0 mg/kg/injection, schedule: Q04DX003 (ip), vehicle: Klucel (hydroxypropylcellulose) (HPC)",115 % of control
same,T/C,"dose: 50.0 mg/kg/injection, schedule: Q01DX009 (ip), vehicle: Klucel (hydroxypropylcellulose) (HPC)",105 % of control
same,T/C,"dose: 150.0 mg/kg/injection, schedule: Q04DX003 (ip), vehicle: Klucel (hydroxypropylcellulose) (HPC)",150 % of control
same,T/C,[10],118 % of control
O=C(O)C1C2CC1C(Cl)C2Cl (stereo unspecified),T/C,"dose: 50.0 mg/kg/injection, schedule: Q01DX009 (ip), vehicle: saline with Tween-80",106 % of control
same,T/C,[1],106 % of control
same,T/C,[3],106 % of control
CCCCCCCCCCCC(O)CCCCC (stereo unspecified),T/C,"dose: 100.0 mg/kg/injection, schedule: Q01DX009 (ip), vehicle: other",120 % of control
same,T/C,"dose: 200.0 mg/kg/injection, schedule: Q01DX009 (ip), vehicle: other",115 % of control
same,T/C,"dose: 400.0 mg/kg/injection, schedule: Q01DX009 (ip), vehicle: other",115 % of control
Cc1c2ccccc2cc2cccc[n+]12,T/C,"dose: 0.63 mg/kg/injection, schedule: Q01DX010 (ip), vehicle: saline",100 % of control
same,T/C,"dose: 1.25 mg/kg/injection, schedule: Q01DX010 (ip), vehicle: saline",100 % of control
same,T/C,"dose: 2.5 mg/kg/injection, schedule: Q01DX010 (ip), vehicle: saline",105 % of control and 120 % of control
same,T/C,"dose: 10.0 mg/kg/injection, schedule: Q01DX010 (ip), vehicle: saline",150 % of control
same,T/C,"dose: 40.0 mg/kg/injection, schedule: Q04DX003 (ip), vehicle: saline",150 % of control
same,T/C,"dose: 80.0 mg/kg/injection, schedule: Q04DX003 (ip), vehicle: saline",100 % of control
O=C(COc1ccccc1)NCCO,T/C,"dose: 100.0 mg/kg/injection, schedule: Q01DX009 (ip), vehicle: Klucel (hydroxypropylcellulose) (HPC)",100 % of control
same,T/C,"dose: 100.0 mg/kg/injection, schedule: Q04DX003 (ip), vehicle: Klucel (hydroxypropylcellulose) (HPC)",91 % of control
same,T/C,"dose: 200.0 mg/kg/injection, schedule: Q01DX009 (ip), vehicle: Klucel (hydroxypropylcellulose) (HPC)",100 % of control
same,T/C,[10],91 % of control
same,T/C,"dose: 400.0 mg/kg/injection, schedule: Q01DX009 (ip), vehicle: Klucel (hydroxypropylcellulose) (HPC)",100 % of control
same,T/C,"dose: 400.0 mg/kg/injection, schedule: Q04DX003 (ip), vehicle: Klucel (hydroxypropylcellulose) (HPC)",91 % of control
S=c1cc(-c2cccs2)ss1,T/C,[7],109 % of control
same,T/C,"dose: 50.0 mg/kg/injection, schedule: Q04DX003 (ip), vehicle: saline",108 % of control
same,T/C,[8],96 % of control
same,T/C,[9],115 % of control
same,T/C,"dose: 200.0 mg/kg/injection, schedule: Q01DX009 (ip), vehicle: saline",100 % of control
same,T/C,"dose: 200.0 mg/kg/injection, schedule: Q04DX003 (ip), vehicle: saline",105 % of control
same,T/C,"dose: 400.0 mg/kg/injection, schedule: Q01DX009 (ip), vehicle: saline",91 % of control
same,T/C,"dose: 400.0 mg/kg/injection, schedule: Q04DX003 (ip), vehicle: saline",107 % of control
COc1ccccc1NC(=O)N(CCCl)N=O,T/C,"dose: 0.1 mg/kg/injection, schedule: Q04DX003 (ip), vehicle: saline with Tween-80",110 % of control
same,T/C,"dose: 0.2 mg/kg/injection, schedule: Q04DX003 (ip), vehicle: saline with Tween-80",100 % of control
same,T/C,"dose: 0.4 mg/kg/injection, schedule: Q04DX003 (ip), vehicle: saline with Tween-80",105 % of control
same,T/C,"dose: 0.8 mg/kg/injection, schedule: Q04DX003 (ip), vehicle: saline with Tween-80",110 % of control
CCCCCCCCCCCCCCCC[N+](C)(C)c1nc(Cl)nc(Cl)n1,T/C,"dose: 7.5 mg/kg/injection, schedule: Q01DX009 (ip), vehicle: saline",110 % of control
same,T/C,"dose: 7.5 mg/kg/injection, schedule: Q04DX003 (ip), vehicle: saline",109 % of control
same,T/C,"dose: 15.0 mg/kg/injection, schedule: Q01DX009 (ip), vehicle: saline",105 % of control
same,T/C,"dose: 15.0 mg/kg/injection, schedule: Q04DX003 (ip), vehicle: saline",113 % of control
same,T/C,"dose: 30.0 mg/kg/injection, schedule: Q01DX009 (ip), vehicle: saline",105 % of control
same,T/C,[6],109 % of control
same,T/C,"dose: 60.0 mg/kg/injection, schedule: Q04DX003 (ip), vehicle: saline",118 % of control
